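Compound exposure: 48 hours, 5 concentrations, 96-well plates. TGI: concentration producing complete growth inhibition.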
How the values were obtained:
Assay in all cases: NCI tumour cell line growth inhibition, 48 h
OVCAR-5 ovarian = test system: OVCAR-5 ovarian
EKVX NSCLC = test system: EKVX NSCLC
HOP-92 NSCLC = test system: HOP-92 NSCLC
HL-60(TB) leukemia = test system: HL-60(TB) leukemia
RXF 393 renal = test system: RXF 393 renal
SF-539 CNS = test system: SF-539 CNS
NCI-H226 lung = test system: NCI-H226 lung
XF 498 CNS = test system: XF 498 CNS
OVCAR-8 ovarian = test system: OVCAR-8 ovarian
HCT-116 colon = test system: HCT-116 colon
SNB-75 CNS = test system: SNB-75 CNS
UO-31 renal = test system: UO-31 renal
NCI-H460 lung = test system: NCI-H460 lung
TK-10 renal = test system: TK-10 renal
M14 melanoma = test system: M14 melanoma
A498 renal = test system: A498 renal
MOLT-4 leukemia = test system: MOLT-4 leukemia
SF-268 CNS = test system: SF-268 CNS
MALME-3M melanoma = test system: MALME-3M melanoma
786-0 renal = test system: 786-0 renal
OVCAR-4 ovarian = test system: OVCAR-4 ovarian
NCI-H23 lung = test system: NCI-H23 lung
HCT-15 colon = test system: HCT-15 colon
UACC-62 melanoma = test system: UACC-62 melanoma
CCRF-CEM leukemia = test system: CCRF-CEM leukemia
ACHN renal = test system: ACHN renal
SNB-78 CNS = test system: SNB-78 CNS
CAKI-1 renal = test system: CAKI-1 renal
LOX IMVI melanoma = test system: LOX IMVI melanoma
SNB-19 CNS = test system: SNB-19 CNS
SW-620 colon = test system: SW-620 colon
KM12 colon = test system: KM12 colon
A549 NSCLC = test system: A549 NSCLC
SN12C renal = test system: SN12C renal
COLO 205 colon = test system: COLO 205 colon
HOP-18 NSCLC = test system: HOP-18 NSCLC
U251 CNS = test system: U251 CNS
SK-OV-3 ovarian = test system: SK-OV-3 ovarian
UACC-257 melanoma = test system: UACC-257 melanoma
K-562 leukemia = test system: K-562 leukemia
OVCAR-3 ovarian = test system: OVCAR-3 ovarian
IGROV1 ovarian = test system: IGROV1 ovarian
DMS 273 small cell lung = test system: DMS 273 small cell lung
RXF-631 renal = test system: RXF-631 renal
KM20L2 colon = test system: KM20L2 colon
RPMI-8226 leukemia = test system: RPMI-8226 leukemia
HOP-62 NSCLC = test system: HOP-62 NSCLC
SK-MEL-5 melanoma = test system: SK-MEL-5 melanoma
M19-MEL melanoma = test system: M19-MEL melanoma
SK-MEL-2 melanoma = test system: SK-MEL-2 melanoma
SF-295 CNS = test system: SF-295 CNS
NCI-H522 lung = test system: NCI-H522 lung
SK-MEL-28 melanoma = test system: SK-MEL-28 melanoma
LXFL 529 NSCLC = test system: LXFL 529 NSCLC
HT29 colon = test system: HT29 colon
DMS 114 small cell lung = test system: DMS 114 small cell lung
SR leukemia = test system: SR leukemia
HCC-2998 colon = test system: HCC-2998 colon
DLD-1 colon = test system: DLD-1 colon
NCI/ADR-RES ovarian = test system: NCI/ADR-RES ovarian
SN12K1 renal = test system: SN12K1 renal
P388/ADR leukemia = test system: P388/ADR leukemia
MCF7 breast = test system: MCF7 breast

Measured: TGI

C[C@]12CCc3nonc3C1CC[C@@H]1C2CC[C@]2(C)NC(=O)CCC12 (stereo not given in full)
not listed: DMS 114 small cell lung | SR leukemia | HCC-2998 colon | DLD-1 colon | NCI/ADR-RES ovarian | SN12K1 renal | P388/ADR leukemia | MCF7 breast
> 100 µM: all other assays above

O=C(N/C(=C\c1cccc([N+](=O)[O-])c1)c1nc2[nH]c(=S)[nH]c(=O)c2[nH]1)c1ccccc1
not listed: TK-10 renal | DMS 273 small cell lung | NCI/ADR-RES ovarian | SN12K1 renal | P388/ADR leukemia | MCF7 breast
> 100 µM: all other assays above

Oc1c2c(c3c4c1N=CC=4CCN=3)-c1c(Br)cc(Br)cc1CCN2
12.2 µM: U251 CNS
15.5 µM: SF-268 CNS
17.4 µM: EKVX NSCLC
7.57 µM: K-562 leukemia
2.77 µM: UACC-62 melanoma
4.09 µM: HL-60(TB) leukemia
6.7 µM: CCRF-CEM leukemia
3.85 µM: DLD-1 colon
2.86 µM: UACC-257 melanoma
21.8 µM: SK-MEL-28 melanoma
20.2 µM: RXF 393 renal
17.5 µM: RPMI-8226 leukemia
4.2 µM: NCI-H522 lung
7.91 µM: HOP-18 NSCLC
12.5 µM: NCI/ADR-RES ovarian
2.62 µM: COLO 205 colon
9.21 µM: KM12 colon
6.03 µM: SW-620 colon
29.8 µM: HOP-62 NSCLC
12 µM: NCI-H460 lung
8.2 µM: KM20L2 colon
5.86 µM: SN12C renal
29.2 µM: SNB-78 CNS
7.12 µM: DMS 114 small cell lung
12.1 µM: OVCAR-8 ovarian
24.7 µM: A498 renal
4.72 µM: HCC-2998 colon
9.46 µM: SF-539 CNS
4.06 µM: LOX IMVI melanoma
3.33 µM: M19-MEL melanoma
4.47 µM: HCT-116 colon
10.3 µM: A549 NSCLC
7.66 µM: HT29 colon
11.8 µM: DMS 273 small cell lung
8.66 µM: OVCAR-5 ovarian
16.8 µM: NCI-H226 lung
22.6 µM: SNB-75 CNS
11 µM: SF-295 CNS
> 38.5 µM: XF 498 CNS
13.8 µM: IGROV1 ovarian
23.1 µM: UO-31 renal
6.23 µM: OVCAR-4 ovarian
4.16 µM: MCF7 breast
26.7 µM: HOP-92 NSCLC
> 35.6 µM: SNB-19 CNS
13.5 µM: SK-MEL-2 melanoma
3.38 µM: SK-MEL-5 melanoma
5.83 µM: P388/ADR leukemia
51.1 µM: CAKI-1 renal
15.4 µM: HCT-15 colon | SN12K1 renal
3.88 µM: NCI-H23 lung
24.9 µM: SK-OV-3 ovarian

Cc1ccc([N+](=O)[O-])cc1NC(=O)C(=O)C(C(=O)c1ccccc1F)C1OC(=O)c2ccccc21 (stereo not given)
90.8 µM: OVCAR-8 ovarian
98.8 µM: SF-268 CNS
67.3 µM: SF-539 CNS
91.8 µM: HCT-116 colon
59.2 µM: NCI-H522 lung
53.9 µM: RXF 393 renal
75.5 µM: SNB-19 CNS
69.6 µM: NCI-H226 lung
84.6 µM: HCC-2998 colon
43.6 µM: U251 CNS
90.3 µM: LOX IMVI melanoma
61.2 µM: DMS 114 small cell lung
not listed: MALME-3M melanoma | 786-0 renal | HOP-18 NSCLC | OVCAR-3 ovarian | NCI/ADR-RES ovarian | SN12K1 renal | P388/ADR leukemia | MCF7 breast
> 100 µM: all other assays above
